Measured values: patent US4694090A, “Chroman compounds useful as analgerics and antioxidants” (Kuraray Co., Ltd., priority 1984, dated 1987)
Structures can show the parent of a compound that is named as a salt.

How the values were obtained:
[1] = Inhibition of linoleic acid oxidation (ferric thiocyanate absorbance at 500 mμ); conditions: 0.2% by weight on linoleic acid basis, pH 9, 70° C.
Procedure: Inhibition of linoleic acid oxidation
A test solution (10 ml) was prepared by adding each test compound, in an amount of 0.2% by weight on the linoleic acid basis, to a borate buffer (pH 9) containing 10^-2 M sodium linoleate. A 0.2 ml portion of the test solution was heated at 70° C. for a specified period of time. After heating, 4.7 ml of 75% ethanol and 0.1 ml of 30% ammonium thiocyanate were added to said test solution, and the mixture was stirred well. Then, 0.1 ml of a ferrous chloride solution [the supernatant obtained by adding an aqueous ferrous sulfate solution (0.6 g/50 ml) and 10 ml of concentrated hydrochloric acid to an aqueous barium chloride solution (0.5 g/50 ml), followed by adequate stirring and standing for a while] was added to said mixture. Exactly 3 minutes later, the resulting solution was measured for the absorbance at 500 mμ. In this way, the trivalent iron formed by the oxidative action of sodium linoleate peroxides was assayed and, based on the assay data, the test compounds were compared with respect to antioxidant activity [cf. Shokuhin Kogaku Jikkensho (Experiments in Food Engineering), vol. I, edited by the Department of Food Engineering, Faculty of Agriculture, Kyoto University, pages 634-635]. The greater the absorbance of the test solution after heating is, the greater the amount of sodium linoleate peroxides formed is.

[2] = AOM (Antioxygen Method) test in ethyl linoleate, time till POV 100 meq/kg; conditions: 0.020 g per 100 g ethyl linoleate, aeration 2.33 cc/sec., 97.8° C.
Procedure: To each 100 g of ethyl linoleate was added 0.020 g of one of the test compounds indicated in Table 7 to prepare a test solution. A 20 ml portion of each test solution was exposed to the accelerated conditions of aeration of 2.33 cc/sec. at 97.8° C. in an AOM (Antioxygen Method) test and the time period till the POV (peroxide value) reached 100 meq/kg was determined.

[3] = Analgesic activity, writhing test (rat); assay type: in vivo; conditions: i.p., 100 mg/kg
Procedure: (§1) β-(2,3-Dihydro-6-hydroxy-2,5,7,8-tetramethyl-2H-benzopyranyl)alanine hydrochloride was evaluated for analgesic activity in the writhing test [cf. Koster et al., Fed. Proc., 18, 412 (1959)], local anesthetic activity in the tail pinch test [cf. Bianchi, C., Brit. J. Pharmacol., 11, 104 (1956)] and bronchodilator activity in lung perfusion [cf. Luduena, F. P., Arch. Int. Pharmacodyn., 111, 392 (1957)].

[4] = system: isoprenaline-induced bronchodilation; experiment: Bronchodilator activity, lung perfusion; conditions: Table 8: guinea pig, in vitro, 300 μg
Procedure: as §1
>40% reduction in Inhibited

[5] = Local anesthetic activity, tail pinch test; assay type: in vivo, Mouse; conditions: s.c., 3%
Procedure: as §1

[6] = Analgesic activity, acetic acid writhing test (mice); assay type: in vivo, Male ddY strain mice; conditions: 100 mg/kg, s.c., male ddY mice, groups of ten
[7] = Acute toxicity (oral administration); conditions: mouse, in vivo, male mice
From the text: Among the chroman compounds (I), the chroman compounds (I-2) show excellent analgesic activity. In addition, these compounds have low toxicity. […] So, the chroman compounds (I-2) can be used as an analgesic.

[8] = Japanese Laid-Open Patent Publication No. 94382/1980; cited from earlier work

Compound | Absorbance, solution after 1 hr. of heating [1] | Absorbance, solution after 2 hrs. of heating [1] | Absorbance, solution after 3 hrs. of heating [1] | Time till POV = 100 meq/kg [2] [h] | other results
O=C1OC(C(O)CO)C(O)=C1O (centres unmarked) [Sodium erithorbate, reference compound] | 0.11 | 0.17 | 0.18 |  | 
COc1c(O)c(C)c2c(c1OC)OC(C)(CC(N)C(=O)O)CC2 (centres unmarked) | 0.02 | 0.03 | 0.05 |  | 
CCCCCCCCCCCCCCCCCCOC(=O)C(N)CC1(C)CCc2c(C)c(O)c(C)c(C)c2O1 (centres unmarked) | 0.03 | 0.04 | 0.07 |  | 
O=C1O[C@H]([C@@H](O)CO)C(O)=C1O [Ascorbic acid, reference compound] | 0.10 | 0.21 | 0.30 |  | 
Cc1c(C)c2c(c(C)c1O)CCC(C)(CC(N)C(=O)O)O2 (centres unmarked) [drawing 62] | 0.02 | 0.03 | 0.03 |  | 
Cc1c(C)c2c(c(C)c1O)CCC(C)(C(O)C(=O)O)O2 (centres unmarked) |  |  |  | 2.3 | 
CCOC(=O)C(O)CC1(C)CCc2c(C)c(O)c(C)c(C)c2O1 (centres unmarked) |  |  |  | 2.3 | 
CC1(CC(N)C(=O)O)CCc2cc(O)ccc2O1 (centres unmarked) | 0.02 | 0.03 | 0.03 |  | 
Cc1c2c(c3ccccc3c1O)OC(C)(CC(O)C(=O)O)CC2 (centres unmarked) |  |  |  | 1.9 | 
Cc1c(C)c2c(c(C)c1O)CCC(C)(CC(N)C(=O)O)O2 (stereo not drawn) [Example 1, β-(2,3-dihydro-6-hydroxy-2,5,7,8-tetramethyl-2H-benzopyranyl)alanine hydrochloride] |  |  |  |  | Activity observed (writhing score, criterion <50% of control group) ([3]; Rat, test 0.75 hr post-dose): 16%; inhibition of writhing ([3]; Table 8: rat): 84%; isoprenaline-induced bronchodilation (in words) [4]: An inhibition of isoprenaline-induced bronchodilation is also observed; Activity observed (animals protected) ([5]; Mouse, tested at 15 min post-dose, criterion >3/5 protected): 5/5; local anesthetic activity (in words) ([5]; Table 8: mouse): demonstrated a local anesthetic activity; inhibition [6]: 96.1%; LD50 [7]: 2620 mg/kg
Cc1c(C)c2c(c(C)c1OC(C)(C)COC(=O)c1cccnc1)CCC(C)(C)O2 [2-(2,2,5,7,8-pentamethyl-6-chromanyloxy)isobutyl nicotinate] |  |  |  |  | cholesterol lowering activity [8]: have cholesterol lowering activity
Cc1c(C)c2c(c(C)c1O)CCC(C)(C(N)C(=O)O)O2 (centres unmarked) | 0.02 | 0.03 | 0.03 |  | 
COc1c(O)c(C)c2c(c1OC)OC(C)(CC(O)C(=O)O)CC2 (centres unmarked) |  |  |  | 2.2 | 
Cc1c(C)c2c(c(C)c1O)CCC(C)(CCCC(C)CCCC(C)CCCC(C)C)O2 (stereo not drawn) [α-Tocopherol, reference compound] | 0.07 | 0.19 | 0.30 | 1.4 | 
Cc1cc2c(c(C)c1O)CCC(C)(CC(N)C(=O)O)O2 (centres unmarked) | 0.02 | 0.03 | 0.04 |  | 
Cc1c(C)c2c(c(C)c1O)CCC(C)(CC(N)C(=O)O)O2 (centres unmarked) [drawing 71] | 0.02 | 0.03 | 0.03 |  | 

Compound | Absorbance, solution after 1 hr. of heating [1] | Absorbance, solution after 2 hrs. of heating [1] | Absorbance, solution after 3 hrs. of heating [1] | Time till POV = 100 meq/kg [2] [h] | other results
COC(=O)C(O)CCC1(C)CCc2c(C)c(O)c(C)c(C)c2O1 (centres unmarked) |  |  |  | 2.1 | 
Cc1c(C)c2c(c(C)c1O)CCC(C)(CCC(N)C(=O)O)O2 (centres unmarked) | 0.02 | 0.03 | 0.04 |  | 
CC(=O)Oc1ccccc1C(=O)O [Aspirin, reference compound] |  |  |  |  | inhibition [6]: 40.8%
Cc1c(C)c2c(c(C)c1O)CCC(C)(CCC(O)C(=O)O)O2 (centres unmarked) |  |  |  | 2.0 | 
Cc1c(C)c2c(c(C)c1O)CCC(C)(CC(O)C(=O)O)O2 (centres unmarked) |  |  |  | 2.4 | 
Cc1cc(O)cc2c1OC(C)(CC(N)C(=O)O)CC2 (centres unmarked) | 0.02 | 0.03 | 0.03 |  | 
Cc1c(C)c2c(c(C)c1O)CCC(C)(CC(N)C(=O)O)O2 (centres unmarked) [drawing 70] | 0.02 | 0.03 | 0.04 |  | 
Cc1c(C)c2c(c(C)c1O)CCC(C)(CC(N)CO)O2 (centres unmarked) [Example 17, 2-amino-3-[2-(2,3-dihydro-6-hydroxy-2,5,7,8-tetramethyl-2H-benzopyranyl)]-1-propanol] |  |  |  |  | inhibition [6]: 83.7%
Cc1c(C)c2c(c(C)c1O)CCC(C)(CN)O2 (centres unmarked) [Example 19, (2,3-dihydro-6-hydroxy-2,5,7,8-tetramethyl-2H-benzopyranyl)methylamine hydrochloride] |  |  |  |  | inhibition [6]: 65.6%
CC1(CC(O)C(=O)O)CCc2cc(O)ccc2O1 (centres unmarked) |  |  |  | 2.2 | 
CCOC(=O)C(O)C1(C)CCc2c(C)c(O)c(C)c(C)c2O1 (centres unmarked) |  |  |  | 2.1 | 
CCOC(=O)C(N)CC1(C)CCc2c(C)c(O)c(C)c(C)c2O1 (centres unmarked) | 0.02 | 0.03 | 0.05 |  | 
Cc1c2c(c3ccccc3c1O)OC(C)(CC(N)C(=O)O)CC2 (centres unmarked) | 0.02 | 0.03 | 0.05 |  | 
Cc1c(C)c2c(c(C)c1OC(C)(C)C(=O)OCCN(C)C)CCC(C)(C)O2 [2-(N,N-dimethylamino)ethyl 2-(2,2,5,7,8-pentamethyl-6-chromanyloxy)isobutyrate] |  |  |  |  | cholesterol lowering activity [8]: have cholesterol lowering activity
Cc1cc(O)cc2c1OC(C)(CC(O)C(=O)O)CC2 (centres unmarked) |  |  |  | 2.3 | 
